From US20100048604A1, “Ligands for Aldoketoreductases” (priority 2004, published 2010)

Experiments:
Format in all cases: biochemical
Conditions in all cases: 12 hour incubation, 30-50 μM substrate, pH 7, 250 μM NAD(P)H
panel of oxidoreductases = assay: Enzymatic screening of probes 1-7 against a panel of oxidoreductases (enzymes other than 3α-HSDs)
Experimental: (§1) FIG. 4. Screening of probes 1-7 against a panel of oxidoreductases Percentage fluorescence increase after 12 hour incubation of 30-50 μM substrate, 100 mM phosphate buffer (pH 7), 250 μM NAD(P)H, and 100 nM enzyme. Substrates 1, 2, 3, and 4 monitored at λexc=340 nm, λem=440 nm. Substrates 5, 6, and 7 monitored at λexc=440 nm, λem=510 nm. 3HSD, 3α-hydroxysteroid dehydrogenase (PT, Pseudomonas testosteroni), HLAD, horse liver alcohol dehydrogenase, TBAD, Thermoanaerobium brockii alcohol dehydrogenase, BS 12HSD, Bacillus sp. 12α-hydroxysteroid dehydrogenase, ABAD, amyloid-β binding alcohol dehydrogenase (human), GDH, glycerol dehydrogenase, YADH, yeast alcohol dehydrogenase, LDH, lactate dehydrogenase.
Probes 1-7 (see FIG. 3) were subsequently tested against a collection of dehydrogenases in the presence of NAD(P)H; the extent of reduction was assessed by the measurement of fluorescence intensity at the emission maximum of each probe (FIG. 4). […]
Initial Screening with Fluorogenic Substrates: Screening of the first fluorogenic substrates for enzymatic activity has been described above. […] Formation of the alcohol reduction product was determined by reading the fluorescence arising from excitation at the corresponding alcohol at either 340 nm (27-30) or 440 nm (31-33).

[1] = biological target: T1, horse liver alcohol dehydrogenase (HLAD) (Equus caballus, UniProt P00327); assay: Enzymatic screening of probes 1-7 against a panel of oxidoreductases
T1 construct: purchased Sigma (St. Louis, Mo.) Lot Number 51K7520 (catalogue number not given)
Experimental: as §1
(§2) Probes 1-7 (see FIG. 3) were subsequently tested against a collection of dehydrogenases in the presence of NAD(P)H; the extent of reduction was assessed by the measurement of fluorescence intensity at the emission maximum of each probe (FIG. 4). This assay included enzymes from two major oxidoreductase superfamilies, the short chain alcohol dehydrogenases (SDR) and the aldo-keto reductases (AKR), ranging from bacterial to mammalian and human enzymes.
(§3) Horse Liver alcohol dehydrogenase (Lot Number 51K7520), Thermoanaerobium brockii NADP^+ dependent alcohol dehydrogenase (Lot Number 033K4093), Pseudomonas testosteroni 3α-hydroxysteroid dehydrogenase (Lot Number 053K8624), and Bacillus sphaericus 12α-hydroxysteroid dehydrogenase (Lot Number 70K16621) were purchased from Sigma (St. Louis, Mo.). Yeast alcohol dehydrogenase (Lot Number 93122920), glycerol dehydrogenase (Lot Number 92110122), (D)-lactate dehydrogenase (Lot Number 92419236), (L)-lactate dehydrogenase (Lot Number 92801821), NAD^+, NADP^+, NADH, and NADPH were purchased from Roche. Enzyme activity was confirmed by compliance to supplier's quality control assays prior to usage. Rat and human 3α-hydroxysteroid dehydrogenases were provided by Professor Trevor Penning (University of Pennsylvania School of Medicine) and human amyloid-β peptide binding alcohol dehydrogenase was supplied by Professor Shi Du Yan (Columbia University School for Physicians and Surgeons).
(§4) Enzymatic assays were performed in triplicate on selected fluorogenic substrates according to the following protocol. To each well of a FALCON 96-well black flat bottom plate was added (1) 40 μL of 500 mM potassium phosphate buffer pH 7.0, (2) 113 μL of double deionized water, (3) 25 μL of 2 mM NADH (except for Pseudomonas testosteroni 3α-hydroxysteroid dehydrogenase, rat 3α-hydroxysteroid dehydrogenase, and Thermoanaerobium brockii NADP^+ dependent alcohol dehydrogenase, in which cases 2 mM of NADPH was used), (4) 2 μL of a 3-5 mM solution of substrate in DMSO, and (5) 20 μL of a 40-50 μg/mL solution of enzyme. Reaction volumes were mixed thoroughly after addition of cofactor, substrate, and enzyme and allowed to react 12 hours at 25° C. Scanning of the 96-well plate was performed by the MicroMax 384 connected to a Jobin Yvon Fluorolog through F-3000 fiber optic cables.
(§5) Initial Screening with Fluorogenic Substrates: Screening of the first fluorogenic substrates for enzymatic activity has been described above. In short, 200 μL enzymatic assay volumes containing 100 mM potassium phosphate buffer (pH 7), 250 μM NAD(P)H cofactor, and 30-50 μM of ketones (1-7) were incubated for 12 hours on a black FALCON 96-well plate. Formation of the alcohol reduction product was determined by reading the fluorescence arising from excitation at the corresponding alcohol at either 340 nm (27-30) or 440 nm (31-33).

[2] = biological target: T2, Thermoanaerobium brockii alcohol dehydrogenase (TBAD) (Thermoanaerobacter brockii, UniProt P14941); assay: as above
T2 construct: purchased Sigma (St. Louis, Mo.) Lot Number 033K4093 (catalogue number not given)
T2 sequence (P14941 1-352): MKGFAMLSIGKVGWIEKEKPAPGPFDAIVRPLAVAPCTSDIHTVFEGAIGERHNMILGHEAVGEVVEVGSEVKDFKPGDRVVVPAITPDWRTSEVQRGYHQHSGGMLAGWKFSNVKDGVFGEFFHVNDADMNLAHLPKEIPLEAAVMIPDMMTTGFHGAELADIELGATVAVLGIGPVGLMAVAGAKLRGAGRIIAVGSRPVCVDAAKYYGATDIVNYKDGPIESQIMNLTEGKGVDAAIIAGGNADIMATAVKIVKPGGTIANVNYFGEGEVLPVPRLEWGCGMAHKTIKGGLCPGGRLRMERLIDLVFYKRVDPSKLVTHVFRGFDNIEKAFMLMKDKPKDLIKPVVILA
Experimental: as §1, §2, §3, §4, §5

[3] = biological target: T3, Pseudomonas testosteroni 3α-hydroxysteroid dehydrogenase (Comamonas testosteroni, UniProt P80702); assay: as above
T3 construct: purchased Sigma (St. Louis, Mo.) Lot Number 053K8624 (catalogue number not given)
Experimental: as §1, §2, §3, §4, §5

[4] = biological target: T4, rat 3α-hydroxysteroid dehydrogenase (Rattus norvegicus, UniProt P23457); assay: as above
T4 construct: gift of Professor Trevor Penning (University of Pennsylvania School of Medicine)
T4 sequence (P23457 1-322): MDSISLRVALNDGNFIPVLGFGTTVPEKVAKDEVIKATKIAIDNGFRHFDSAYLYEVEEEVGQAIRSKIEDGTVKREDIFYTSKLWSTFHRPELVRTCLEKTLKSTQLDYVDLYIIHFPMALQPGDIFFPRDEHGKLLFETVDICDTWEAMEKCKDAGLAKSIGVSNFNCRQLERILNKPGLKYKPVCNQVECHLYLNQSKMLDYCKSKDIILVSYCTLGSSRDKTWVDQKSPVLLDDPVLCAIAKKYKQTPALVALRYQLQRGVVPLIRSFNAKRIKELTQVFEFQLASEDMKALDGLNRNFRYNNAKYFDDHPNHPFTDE
Experimental: as §1, §2, §3, §4, §5

T1 sequence (P00327 2-375 limits assumed): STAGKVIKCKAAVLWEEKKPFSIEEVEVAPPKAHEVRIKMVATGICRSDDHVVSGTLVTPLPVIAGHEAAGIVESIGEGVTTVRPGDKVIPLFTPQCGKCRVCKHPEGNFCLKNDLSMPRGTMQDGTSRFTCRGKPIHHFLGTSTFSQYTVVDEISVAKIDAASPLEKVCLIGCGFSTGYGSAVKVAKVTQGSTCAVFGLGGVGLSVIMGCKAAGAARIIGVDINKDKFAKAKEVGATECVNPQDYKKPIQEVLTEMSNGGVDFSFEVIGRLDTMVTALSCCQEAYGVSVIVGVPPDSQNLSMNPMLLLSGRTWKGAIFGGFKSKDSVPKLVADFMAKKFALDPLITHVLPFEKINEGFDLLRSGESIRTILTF
T3 sequence (P80702 whole entry): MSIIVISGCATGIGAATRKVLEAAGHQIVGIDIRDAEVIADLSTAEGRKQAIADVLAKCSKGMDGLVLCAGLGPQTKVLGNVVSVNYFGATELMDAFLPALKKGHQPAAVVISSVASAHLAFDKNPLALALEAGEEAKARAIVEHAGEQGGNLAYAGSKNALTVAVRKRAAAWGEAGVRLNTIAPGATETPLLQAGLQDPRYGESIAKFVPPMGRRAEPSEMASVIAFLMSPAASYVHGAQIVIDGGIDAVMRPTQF

For `CC(=O)c1cc(=O)oc2c3c4c(cc12)CCCN4CCC3` [compound 5, 8-Acetyl-2,3,5,6-tetrahydro-1H,4H-11-oxa-3a-aza-benzo[de]anthracen-10-one], the “reduction of probe by the other enzymes of the panel” value (panel of oxidoreductases) was “No other enzymes examined in this assay catalyzed the reduction”, the “reduction of probe (fluorescence increase)” value [1] was “not acceptant” and the “reduction of probe (fluorescence increase)” value [2] was “not acceptant”. For the same molecule, the “reduction of probe (fluorescence increase)” value [3] was “converted rapidly and selectively” and the “reduction of probe (fluorescence increase)” value [4] was “converted rapidly and selectively”.
